Laboratory results published in patent US7504517B2, “Kv1.5 potassium channel inhibitors” (Wyeth, priority 2006, dated 2009).
Structures can show the parent of a compound that is named as a salt.

Molecular target: T1, Kv1.5 (Homo sapiens, UniProt P22460)
T1 construct: expressed in transfected cells; host or cells: HEK or LTK- cells
Experiment: Kv1.5 Patch Clamp EP
Format: cell-based
Conditions: 1.0 μM, single point; whole cell patch clamp, Kv1.5 stably over expressed in HEK or LTK- cells
Experimental: The external solution is standard Tyrodes solution. […] Inhibition was measured at the end of the 1 second pulses and expressed relative to controls. Initial Kv1.5 inhibition is estimated by single point determinations done at 1 μM.

T1 sequence (P22460 whole entry): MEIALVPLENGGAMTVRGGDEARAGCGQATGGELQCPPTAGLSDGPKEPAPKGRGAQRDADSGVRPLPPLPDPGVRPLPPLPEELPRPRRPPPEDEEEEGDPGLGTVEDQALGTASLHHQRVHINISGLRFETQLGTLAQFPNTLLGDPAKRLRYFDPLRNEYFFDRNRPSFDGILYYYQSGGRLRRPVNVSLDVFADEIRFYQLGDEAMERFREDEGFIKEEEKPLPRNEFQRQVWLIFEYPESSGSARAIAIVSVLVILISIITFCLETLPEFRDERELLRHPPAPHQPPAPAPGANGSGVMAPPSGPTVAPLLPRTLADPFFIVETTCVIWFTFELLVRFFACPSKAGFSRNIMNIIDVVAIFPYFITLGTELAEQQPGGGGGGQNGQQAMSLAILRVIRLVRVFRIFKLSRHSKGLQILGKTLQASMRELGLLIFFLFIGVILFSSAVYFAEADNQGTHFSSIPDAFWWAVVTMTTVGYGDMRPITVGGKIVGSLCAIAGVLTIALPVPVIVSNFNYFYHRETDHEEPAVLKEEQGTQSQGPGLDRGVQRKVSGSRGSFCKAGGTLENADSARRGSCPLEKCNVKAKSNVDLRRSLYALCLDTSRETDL

| SMILES | inhibition at 1 µM | Kv1.5% inhibition @ 1.0 μM |
| --- | --- | --- |
| COc1ccc(CCN2C(=O)N(N)CC2c2ccc(C(C)(C)C)cc2)cc1 (stereo not shown) [Compound 2, 1-Amino-4-[4-(tert-butyl)phenyl]-3-[2-(4-methoxyphenyl)ethyl]-2-imidazolidinone] | 46% | – |
| COc1ccc(CCCN2C(=O)N(N)CC2c2ccc(OC)cc2)cc1 (stereo not shown) [Compound 3, 1-Amino-4-(4-methoxyphenyl)-3-[3-(4-methoxyphenyl)propyl]-2-imidazolidinone] | 13% | – |
| COc1ccc(CCN2C(=O)N(N)CC2c2ccc(OC(F)F)cc2)cc1 (stereo not shown) [Compound 5, 1-Amino-3-[2-(4-methoxyphenyl)ethyl]-4-(4-difluoromethoxyphenyl)-2-imidazolidinone 4-methylbenzenesulfonic acid salt] | 36% | – |
| COc1ccc(CCN2C(=O)N(NS(=O)(=O)c3cccnc3)CC2c2ccc(OC)cc2)cc1 (stereo not shown) [Compound 62, 1-[(Pyridin-3-yl)sulfonylamino]-3-[2-(4-methoxyphenyl)ethyl]-4-(4-methoxyphenyl)-2-imidazolidinone] | 26% | – |
| COc1ccc(CCN2C(=O)N(NC(N)=O)CC2c2ccc(C)c(C)c2)cc1 (stereo not shown) [Compound 70, {2-Oxo-3-[2-(4-methoxyphenyl)ethyl]-4-(3,4-dimethylphenyl)-imidazolidin-1-yl}-urea] | 22% | – |
| COc1ccc(CCN2C(=O)N(NCC3CC3)CC2c2ccc(C)c(C)c2)cc1 (stereo not shown) [Compound 86, 1-(Cyclopropylmethylamino)-3-[2-(4-methoxyphenyl)ethyl]-4-(3,4-dimethylphenyl)-2-imidazolidinone] | 20% | – |
| COc1ccc(CCN2C(=O)N(NCc3ccccn3)CC2c2ccc(C)c(C)c2)cc1 (stereo not shown) [Compound 93, 1-[(Pyridin-2-ylmethyl)amino]-3-[2-(4-methoxyphenyl)ethyl]-4-(3,4-dimethylphenyl)-2-imidazolidinone] | 46% | – |
| COc1ccc(CCN2C(=O)N(NCc3ccncc3)CC2c2ccc(C(C)(C)C)cc2)cc1 (stereo not shown) [Compound 95, 1-[(Pyridin-4-ylmethyl)amino]-3-[2-(4-methoxyphenyl)ethyl]-4-(4-(tert-butyl)phenyl)-2-imidazolidinone] | 43% | – |
| COc1ccc(CCN2C(=O)N(NS(=O)(=O)CC(=O)OCC3c4ccccc4-c4ccccc43)CC2c2ccc(C3CC3)cc2)cc1 (stereo not shown) [Compound 102, 1-[[2-(9H-fluoren-9-ylmethoxy)-2-oxoethyl]sulfonylamino]-3-[2-(4-methoxyphenyl)ethyl]-4-(4-cyclopropylphenyl)-2-imidazolidinone] | 6% | – |
| COc1ccc(CCN2C(=O)N(N)CC2c2ccc(OC(F)(F)F)cc2)cc1 (stereo not shown) [Compound 110, 1-amino-3-[2-(4-methoxyphenyl)ethyl]-4-[4-(trifluoromethoxy)phenyl]imidazolidin-2-one] | 7% | – |
| COc1ccc(CCN2C(=O)N(N3CCNCC3)CC2c2ccc(C(C)(C)C)cc2)cc1 (stereo not shown) [Compound 112, 4-(4-tert-butylphenyl)-3-[2-(4-methoxyphenyl)ethyl]-1-piperazin-1-ylimidazolidin-2-one] | 8% | – |
| CNC(=O)N1CCN(N2CC(c3ccc(C(C)(C)C)cc3)N(CCc3ccc(OC)cc3)C2=O)CC1 (stereo not shown) [Compound 117, 4-{4-(4-tert-butylphenyl)-3-[2-(4-methoxyphenyl)ethyl]-2-oxoimidazolidin-1-yl}-N-methylpiperazine-1-carboxamide] | 19% | – |
| COc1ccc(CCN2C(=O)N(NCCn3ccnc3)CC2c2ccc(C(C)(C)C)cc2)cc1 (stereo not shown) [Compound 121, 4-(4-tert-butylphenyl)-1-{[2-(1H-imidazol-1-yl)ethyl]amino}-3-[2-(4-methoxyphenyl)ethyl]imidazolidin-2-one] | 7% | – |
| COc1ccc(CCN2C(=O)N(NC(=O)Cc3cccnc3)CC2c2ccc(C3CC3)cc2)cc1 (stereo not shown) [Compound 122, N-{4-(4-cyclopropylphenyl)-3-[2-(4-methoxyphenyl)ethyl]-2-oxoimidazolidin-1-yl}-2-pyridin-3-ylacetamide] | 36% | – |
| CCN(CC)c1ccc(CNN2CC(c3ccc(C(C)(C)C)cc3)N(CCc3ccc(OC)cc3)C2=O)cc1 (stereo not shown) [Compound 123, 4-(4-tert-butylphenyl)-1-{[4-(diethylamino)benzyl]amino}-3-[2-(4-methoxyphenyl)ethyl]imidazolidin-2-one] | 25% | – |
| COc1ccc(CCN2C(=O)N(N3CCCS3(=O)=O)CC2c2ccc(C3CC3)cc2)cc1 (stereo not shown) [Compound 124, 4-(4-cyclopropylphenyl)-1-(1,1-dioxidoisothiazolidin-2-yl)-3-[2-(4-methoxyphenyl)ethyl]imidazolidin-2-one] | 38% | – |
| COc1ccc(CCN2C(=O)N(NS(=O)(=O)CCN3CCOCC3)CC2c2ccc3c(c2)OCCO3)cc1 (stereo not shown) [Compound 125, N-{4-(2,3-dihydro-1,4-benzodioxin-6-yl)-3-[2-(4-methoxyphenyl)ethyl]-2-oxoimidazolidin-1-yl}-2-morpholin-4-ylethanesulfonamide] | 42% | – |
| COc1ccc(CCN2C(=O)N(N3CCN(C(=O)N(C)C)CC3)CC2c2ccc(C(C)(C)C)cc2)cc1 (stereo not shown) [Compound 130, 4-{4-(4-tert-butylphenyl)-3-[2-(4-methoxyphenyl)ethyl]-2-oxoimidazolidin-1-yl}-N,N-dimethylpiperazine-1-carboxamide] | 37% | – |
| COc1ccc(CCN2C(=O)N(NS(=O)(=O)CC(=O)N(C)CC(=O)N(C)C)CC2c2ccc(C3CC3)cc2)cc1 (stereo not shown) [Compound 132, 2-(N-(4-(4-cyclopropylphenyl)-3-(4-methoxyphenethyl)-2-oxoimidazolidin-1-yl)sulfamoyl)-N-(2-(dimethylamino)-2-oxoethyl)-N-methylacetamide] | 3% | – |
| COc1ccc(CCN2C(=O)N(NS(=O)(=O)Cc3cccnc3)CC2C2(c3ccccc3)CC2)cc1 (stereo not shown) [Compound 134, N-{3-[2-(4-methoxyphenyl)ethyl]-2-oxo-4-(1-phenylcyclopropyl)imidazolidin-1-yl}-1-pyridin-3-ylmethanesulfonamide] | 22% | – |

Continued, values first:

| inhibition at 1 µM | Kv1.5% inhibition @ 1.0 μM | SMILES |
| --- | --- | --- |
| – | 28% | COc1ccc(CCN2C(=O)N(NS(C)(=O)=O)CC2c2ccc(OC(C)C)cc2)cc1 (stereo not shown) [Compound 14, 1-(Methylsulfonylamino)-3-[2-(4-methoxyphenyl)ethyl]-4-[(4-isopropyloxy)-phenyl]-2-imidazolidinone] |
| 46% | – | COc1ccc(CCN2C(=O)N(NS(C)(=O)=O)CC2c2ccc3c(c2)OCO3)cc1 (stereo not shown) [Compound 15, 1-(Methylsulfonylamino)-3-[2-(4-methoxyphenyl)ethyl]-4-(benzo[1,3]dioxol-5-yl)-2-imidazolidinone] |
| 48% | – | COc1ccc(CCN2C(=O)N(NS(C)(=O)=O)CC2c2ccc3c(c2)OC(F)(F)O3)cc1 (stereo not shown) [Compound 16, 1-(Methylsulfonylamino)-3-[2-(4-methoxyphenyl)ethyl]-4-(2,2-difluorobenzo-[1,3]dioxol-5-yl)-2-imidazolidinone] |
| 27% | – | COc1ccc(CN2C(=O)N(NS(C)(=O)=O)CC2c2ccc(C3CC3)cc2)cc1 (stereo not shown) [Compound 19, 1-(Methylsulfonylamino)-3-[(4-methoxyphenyl)methyl]-4-(4-cyclopropylphenyl)-2-imidazolidinone] |
| 30% | – | COc1ccc(CCN2C(=O)N(NS(C)(=O)=O)CC2c2ccc(C(F)(F)F)cc2)cc1 (stereo not shown) [Compound 22, 1-(Methylsulfonylamino)-3-[2-(4-methoxyphenyl)ethyl]-4-(4-trifluoromethyl-phenyl)-2-imidazolidinone] |
| 42% | – | COc1ccc(CCN2C(=O)N(NS(=O)(=O)CC#N)CC2c2ccc(OC)cc2)cc1 (stereo not shown) [Compound 41, 1-(Cyanomethylsulfonylamino)-3-[2-(4-methoxyphenyl)ethyl]-4-[(4-methoxy)-phenyl]-2-imidazolidinone] |
| 40% | – | COc1ccc(C2CN(NS(C)(=O)=O)C(=O)N2CCCc2ccccc2)cc1 (stereo not shown) [Compound 46, 1-(Methylsulfonylamino)-3-(3-phenylpropyl)-4-(4-methoxyphenyl)-2-imidazolidinone] |
| 39% | – | COc1ccc(CCN2C(=O)N(NS(=O)(=O)CC(=O)NC3CC3)CC2c2ccc(OC)cc2)cc1 (stereo not shown) [Compound 56, 1-[[2-(Cyclopropylamino)-2-oxoethyl]sulfonylamino]-3-[2-(4-methoxyphenyl)-ethyl]-4-(4-methoxyphenyl)-2-imidazolidinone] |
| 5% | – | CCOc1ccc(CCN2C(=O)N(NS(C)(=O)=O)CC2c2ccc(OC)cc2)cc1 (stereo not shown) [Compound 113, N-{3-[2-(4-ethoxyphenyl)ethyl]-4-(4-methoxyphenyl)-2-oxoimidazolidin-1-yl}methanesulfonamide] |
| 5% | – | COc1ccc(CCN2C(=O)N(NS(=O)(=O)CC(N)=O)CC2c2ccc(OC)cc2)cc1 (stereo not shown) [Compound 115, 2-({4-(4-methoxyphenyl)-3-[2-(4-methoxyphenyl)ethyl]-2-oxoimidazolidin-1-yl}sulfamoyl)acetamide] |
| 9% | – | CN(C)CCOc1ccc(CCN2C(=O)N(NS(C)(=O)=O)CC2c2ccc(C(C)(C)C)cc2)cc1 (stereo not shown) [Compound 118, N-[4-(4-tert-butylphenyl)-3-(2-{4-[2-(dimethylamino)ethoxy]phenyl}ethyl)-2-oxoimidazolidin-1-yl]methanesulfonamide] |
| 5% | – | COc1ccc(CCN2C(=O)N(NS(C)(=O)=O)CC2Cc2ccc(F)cc2)cc1 (stereo not shown) [Compound 120, N-{4-(4-fluorobenzyl)-3-[2-(4-methoxyphenyl)ethyl]-2-oxoimidazolidin-1-yl}methanesulfonamide] |
| 46% | – | COc1ccc(CCCN2C(=O)N(NS(=O)(=O)CS(C)(=O)=O)CC2c2ccc(OC)cc2)cc1 (stereo not shown) [Compound 126, N-{4-(4-methoxyphenyl)-3-[3-(4-methoxyphenyl)propyl]-2-oxoimidazolidin-1-yl}-1-(methylsulfonyl)methanesulfonamide] |
| 4% | – | COc1ccc(CCN2C(=O)N(N)CC2Cc2ccc(F)cc2)cc1 (stereo not shown) [Compound 129, 1-amino-4-(4-fluorobenzyl)-3-[2-(4-methoxyphenyl)ethyl]imidazolidin-2-one] |
